This note sets out measurements from patent EP2283839A1, “Polyunsaturated hydroxylated molecule having an eze geometry and its use in therapy” (Institut National des Sciences Appliquées de Lyon, priority 2009, dated 2011).

Marks after values point to notes of the source that are not given here.

This assay relates to platelets isolated from human blood. Kind of assay: Measurement of platelet aggregation (turbidimetric method, aggregometer). The note with it: 1 µM triene molecules; Collagen-induced platelet aggregation; measured after 4 min. Type of assay: cell-based. Here is the method:
Aggregation tests were performed on platelets isolated from human blood in presence or not of different dihydroxylated triene compounds with different double bond geometry: ZEE, EZE or ZZZ. Platelet aggregation was determined by a standard turbidimetric method using a dual aggregometer (CHRONO-LOG, USA). The levels of light transmission were calibrated as 0 % for a platelet suspension and 100% for the Tyrode/HEPES solution (pH 7.35). 400 µl of platelet suspension in a vial was preincubated for 1 min at 37 °C under a continuous stirring condition, 1 µl of sample in ethanol was added for incubation, the activators (collagen, arachidonic acid, or U46619) were added after 2 min of incubation and the extent of platelet aggregation was measured after 4 min running. Other compounds were prepared using the same procedure or by conversion of PDX and compared to similar compounds of different configurations ZEE or EEE. Table I: Effects of 1 µM triene molecules on Collagen-induced platelet aggregation
On to `CCCCC/C=C\C[C@@H](O)/C=C/C=C/C=C\[C@@H](O)CCCC(=O)O` [LTB4, 5(S),12(R)-dihydroxy-eicosa-6Z,8E,10E,14Z-tetraenoic acid], for which the “% inhibition” value was 3.4%.
The figure for `CCCCCCCC[C@@H](O)/C=C/C=C/C=C\[C@@H](O)CCCC(=O)O` [LTB3, 5(S),12(R)-dihydroxy-eicosa-6Z,8E,10E,-trienoic acid] is 5.0%.
In the case of `CCCCCCCC[C@H](O)/C=C/C=C/C=C\[C@@H](O)CCCC(=O)O` [12-epi LTB3, 5(S),12(S)-dihydroxy-eicosa-6Z,8E,10E,-trienoic acid], the “% inhibition” value came to 7.4%.
The figure for `CCCCC[C@H](O)/C=C/C=C\C=C\[C@@H](O)C/C=C\CCCC(=O)O` [8(S),15(S)-diHETE, 8(S),15(S)-dihydroxy-eicosa-5Z,9E,11Z,13E -tetraenoic acid] is 66.5** %.
The figure for `CCCCC/C=C\C[C@H](O)/C=C/C=C\C=C\[C@@H](O)CCCC(=O)O` [5(S),12(S)-diHETE, 5(S),12(S)-dihydroxy-eicosa-6E,8Z,10E,14Z tetraenoic acid] is 74.9** %.
Next, `CC/C=C\C[C@H](O)/C=C/C=C\C=C\[C@@H](O)C/C=C\C/C=C\CCC(=O)O` [PDX, 10S,17S-dihydroxy-docosa-4Z,7Z,11E,13Z,15E,19Z-hexaenoic acid]: 56.1** %; `CC/C=C\C[C@H](O)/C=C/C=C\C=C\[C@H](O)C/C=C\C/C=C\CCC(=O)O` [10(R),17(S)-diOH-22:6, 10(R),17(S)-dihydroxy-docosa-4Z,7Z,11E,13Z,15E,17Z-hexaenoic acid]: 70.0** %; `CCCCC[C@H](O)/C=C/C=C\C=C\[C@@H](O)CCCCCCCCC(=O)O` [diOH-22:3, 10(S),17(S)-dihydroxy-docosa-11E,13Z,15E,-trienoic acid]: 63.8** %.
As to `CCCCC/C=C\C[C@H](O)/C=C/C=C/C=C/[C@@H](O)CCCC(=O)O` [6trans-12-epi LTB4, 5(S),12(S)-dihydroxy-eicosa-6E,8E,10E,14Z-tetraenoic acid], the “% inhibition” value is 1.8%.
The figure for `CCCCC/C=C\C[C@H](O)/C=C/C=C/C=C\[C@@H](O)CCCC(=O)O` [12-epi LTB4, 5(S),12(S)-dihydroxy-eicosa-6Z,8E,10E,14Z-tetraenoic acid] is 3.9%.
Next, `CCCCC/C=C\C[C@@H](O)/C=C/C=C/C=C/[C@@H](O)CCCC(=O)O` [6-trans LTB4, 5(S),12(R)-dihydroxy-eicosa-6E,8E,10E,14Z-tetraenoic acid]: 8.1%.
